From ChEMBL document CHEMBL3525908, “Chronic doxorubicin cardiotoxicity modulates cardiac cytochrome P450-mediated arachidonic acid metabolism in rats” (Drug Metab Dispos, 2012)

Experiments:
Rattus norvegicus [1] = experiment: Induction of CYP450-mediated arachidonic acid metabolism in Sprague-Dawley rat heart microsomes assessed as 8,9-EET formation administered as cumulative dose of 15 mg/kg, ip divided into 6 injections for 2 weeks followed by compound washout period of 14 days by LC-ESI-MS analysis relative to control; assay type: ADME, organism-based; parameters: dose 15 mg/kg, route intraperitoneal; conditions: 336 h
Rattus norvegicus [2] = experiment: Cardiotoxicity in Sprague-Dawley rat assessed as increase in CYP1B1 gene expression level administered as cumulative dose of 15 mg/kg, ip divided into 6 injections for 2 weeks followed by compound washout period of 14 days by RT-PCR analysis relative to control; assay type: toxicity, organism-based; parameters: dose 15 mg/kg, route intraperitoneal; conditions: in vivo, 336 h
Rattus norvegicus [3] = experiment: Cardiotoxicity in Sprague-Dawley rat assessed as increase in sEH activity in heart microsomes administered as cumulative dose of 15 mg/kg, ip divided into 6 injections for 2 weeks followed by compound washout period of 14 days by RT-PCR analysis relative to control; assay type: toxicity, organism-based; parameters: dose 15 mg/kg, route intraperitoneal; conditions: 336 h
CYP450 = experiment: Induction of CYP450-mediated arachidonic acid metabolism in Sprague-Dawley rat heart microsomes assessed as 11,12-DHET formation administered as cumulative dose of 15 mg/kg, ip divided into 6 injections for 2 weeks followed by compound washout period of 14 days by LC-ESI-MS analysis relative to control; assay type: ADME, organism-based; parameters: dose 15 mg/kg, route intraperitoneal; conditions: probe arachidonic acid
Rattus norvegicus [4] = experiment: Toxicity in Sprague-Dawley rat assessed as CYP4A1 gene expression in liver administered as cumulative dose of 15 mg/kg, ip divided into 6 injections for 2 weeks followed by compound washout period of 14 days by RT-PCR analysis relative to control; assay type: organism-based; parameters: dose 15 mg/kg, route intraperitoneal; conditions: in vivo, 336 h
Rattus norvegicus [5] = experiment: Toxicity in Sprague-Dawley rat assessed as induction of IL-6 gene expression in liver administered as cumulative dose of 15 mg/kg, ip divided into 6 injections for 2 weeks followed by compound washout period of 14 days by RT-PCR analysis relative to control; assay type: organism-based; parameters: dose 15 mg/kg, route intraperitoneal; conditions: 336 h
CYP4F1 = experiment: Cardiotoxicity in Sprague-Dawley rat assessed as increase in CYP4F1 gene expression level administered as cumulative dose of 15 mg/kg, ip divided into 6 injections for 2 weeks followed by compound washout period of 14 days by RT-PCR analysis relative to control; assay type: toxicity, organism-based; parameters: dose 15 mg/kg, route intraperitoneal; conditions: heart
CYP2J3 = experiment: Toxicity in Sprague-Dawley rat assessed as induction of CYP2J3 gene expression in kidney administered as cumulative dose of 15 mg/kg, ip divided into 6 injections for 2 weeks followed by compound washout period of 14 days by RT-PCR analysis relative to control; assay type: organism-based; parameters: dose 15 mg/kg, route intraperitoneal
CYP4F5 = experiment: Toxicity in Sprague-Dawley rat assessed as induction of CYP4F5 gene expression in kidney administered as cumulative dose of 15 mg/kg, ip divided into 6 injections for 2 weeks followed by compound washout period of 14 days by RT-PCR analysis relative to control; assay type: organism-based; parameters: dose 15 mg/kg, route intraperitoneal
Rattus norvegicus [6] = experiment: Induction of CYP450-mediated arachidonic acid metabolism in Sprague-Dawley rat heart microsomes assessed as 14,15-EET formation administered as cumulative dose of 15 mg/kg, ip divided into 6 injections for 2 weeks followed by compound washout period of 14 days by LC-ESI-MS analysis relative to control; assay type: ADME, organism-based; parameters: dose 15 mg/kg, route intraperitoneal; conditions: 336 h
Rattus norvegicus [7] = experiment: Cardiotoxicity in Sprague-Dawley rat assessed as increase in CYP2B1 gene expression level administered as cumulative dose of 15 mg/kg, ip divided into 6 injections for 2 weeks followed by compound washout period of 14 days by RT-PCR analysis relative to control; assay type: toxicity, organism-based; parameters: dose 15 mg/kg, route intraperitoneal; conditions: in vivo, 336 h
Rattus norvegicus [8] = experiment: Toxicity in Sprague-Dawley rat assessed as inhibition of CYP2B2 gene expression in liver administered as cumulative dose of 15 mg/kg, ip divided into 6 injections for 2 weeks followed by compound washout period of 14 days by RT-PCR analysis relative to control; assay type: organism-based; parameters: dose 15 mg/kg, route intraperitoneal; conditions: in vivo, 336 h
Rattus norvegicus [9] = experiment: Toxicity in Sprague-Dawley rat assessed as CYP2J3 gene expression in liver administered as cumulative dose of 15 mg/kg, ip divided into 6 injections for 2 weeks followed by compound washout period of 14 days by RT-PCR analysis relative to control; assay type: organism-based; parameters: dose 15 mg/kg, route intraperitoneal; conditions: in vivo, 336 h
Rattus norvegicus [10] = experiment: Toxicity in Sprague-Dawley rat assessed as CYP4A3 gene expression in liver administered as cumulative dose of 15 mg/kg, ip divided into 6 injections for 2 weeks followed by compound washout period of 14 days by RT-PCR analysis relative to control; assay type: organism-based; parameters: dose 15 mg/kg, route intraperitoneal; conditions: in vivo, 336 h
Rattus norvegicus [11] = experiment: Toxicity in Sprague-Dawley rat assessed as inhibition of CYP2C11 gene expression in liver administered as cumulative dose of 15 mg/kg, ip divided into 6 injections for 2 weeks followed by compound washout period of 14 days by RT-PCR analysis relative to control; assay type: organism-based; parameters: dose 15 mg/kg, route intraperitoneal; conditions: in vivo, 336 h
Rattus norvegicus [12] = experiment: Cardiotoxicity in Sprague-Dawley rat assessed as increase in alpha-MHC gene expression level administered as cumulative dose of 15 mg/kg, ip divided into 6 injections for 2 weeks followed by compound washout period of 14 days by RT-PCR analysis relative to control; assay type: toxicity, organism-based; parameters: dose 15 mg/kg, route intraperitoneal; conditions: in vivo, 336 h
Rattus norvegicus [13] = experiment: Toxicity in Sprague-Dawley rat assessed as inhibition of CYP2B1 gene expression in liver administered as cumulative dose of 15 mg/kg, ip divided into 6 injections for 2 weeks followed by compound washout period of 14 days by RT-PCR analysis relative to control; assay type: organism-based; parameters: dose 15 mg/kg, route intraperitoneal; conditions: in vivo, 336 h
CYP1B1 = experiment: Toxicity in Sprague-Dawley rat assessed as induction of CYP1B1 gene expression in kidney administered as cumulative dose of 15 mg/kg, ip divided into 6 injections for 2 weeks followed by compound washout period of 14 days by RT-PCR analysis relative to control; assay type: organism-based; parameters: dose 15 mg/kg, route intraperitoneal
Rattus norvegicus [14] = experiment: Toxicity in Sprague-Dawley rat assessed as induction of IL-6 gene expression in kidney administered as cumulative dose of 15 mg/kg, ip divided into 6 injections for 2 weeks followed by compound washout period of 14 days by RT-PCR analysis relative to control; assay type: organism-based; parameters: dose 15 mg/kg, route intraperitoneal; conditions: 336 h
CYP1A2 = experiment: Toxicity in Sprague-Dawley rat assessed as induction of CYP1A2 gene expression in liver administered as cumulative dose of 15 mg/kg, ip divided into 6 injections for 2 weeks followed by compound washout period of 14 days by RT-PCR analysis relative to control; assay type: organism-based; parameters: dose 15 mg/kg, route intraperitoneal
Rattus norvegicus [15] = experiment: Cardiotoxicity in Sprague-Dawley rat assessed as increase in p53 gene expression level administered as cumulative dose of 15 mg/kg, ip divided into 6 injections for 2 weeks followed by compound washout period of 14 days by RT-PCR analysis relative to control; assay type: toxicity, organism-based; parameters: dose 15 mg/kg, route intraperitoneal; conditions: in vivo, 336 h
CYP4A3 = experiment: Cardiotoxicity in Sprague-Dawley rat assessed as increase in CYP4A3 gene expression level administered as cumulative dose of 15 mg/kg, ip divided into 6 injections for 2 weeks followed by compound washout period of 14 days by RT-PCR analysis relative to control; assay type: toxicity, organism-based; parameters: dose 15 mg/kg, route intraperitoneal; conditions: heart
Rattus norvegicus [16] = experiment: Toxicity in Sprague-Dawley rat assessed as CYP4A3 gene expression in kidney administered as cumulative dose of 15 mg/kg, ip divided into 6 injections for 2 weeks followed by compound washout period of 14 days by RT-PCR analysis relative to control; assay type: organism-based; parameters: dose 15 mg/kg, route intraperitoneal; conditions: in vivo, 336 h
Rattus norvegicus [17] = experiment: Induction of epoxygenase-mediated arachidonic acid metabolism in Sprague-Dawley rat heart microsomes assessed as EET/DHET formation administered as cumulative dose of 15 mg/kg, ip divided into 6 injections for 2 weeks followed by compound washout period of 14 days by LC-ESI-MS analysis relative to control; assay type: ADME, organism-based; parameters: dose 15 mg/kg, route intraperitoneal; conditions: 336 h
H9c2 = experiment: Cytotoxicity against rat H9c2 cells assessed as reduction in ANP mRNA expression at 1 uM after 6 hrs in presence of HET0016; assay type: cell-based; conditions: h9c2, 6 h

For `COc1cccc2c1C(=O)c1c(O)c3c(c(O)c1C2=O)C[C@@](O)(C(=O)CO)C[C@@H]3O[C@H]1C[C@H](N)[C@H](O)[C@H](C)O1` [DOXORUBICIN], the Activity (Rattus norvegicus [1]) was “Active”, the Activity (Rattus norvegicus [2]) was “Non-toxic” and the Ratio (Rattus norvegicus [3]) was 1.6. The fold induction at 336 h (CYP450) was 1.9, the Activity (Rattus norvegicus [4]) was “Non-toxic” and the fold induction at 15 mg/kg (Rattus norvegicus [5]) was 4.5. For the same compound, the fold induction at 336 h (CYP4F1) was 1.6, the fold induction at 336 h (CYP2J3) was 1.6 and the fold induction at 336 h (CYP4F5) was 1.7. The Activity (Rattus norvegicus [6]) was “Active”, the Activity (Rattus norvegicus [7]) was “Non-toxic” and the Ratio (Rattus norvegicus [8]) was 0.5. The Activity (Rattus norvegicus [9]) was “Non-toxic”, the Activity (Rattus norvegicus [10]) was “Non-toxic” and the Ratio (Rattus norvegicus [11]) was 0.7. It also gave a Ratio (Rattus norvegicus [12]) of 1.6, a Ratio (Rattus norvegicus [13]) of 0.5 and a fold induction at 336 h (CYP1B1) of 1.8. It also gave a fold induction at 15 mg/kg (Rattus norvegicus [14]) of 4.7, a fold induction at 336 h (CYP1A2) of 1.9 and a Ratio (Rattus norvegicus [15]) of 1.7. For the same compound, the fold induction at 336 h (CYP4A3) was 2, the Activity (Rattus norvegicus [16]) was “Non-toxic” and the Activity (Rattus norvegicus [17]) was “Toxic”. For the same compound, the Activity (H9c2) was “Toxic”.
